In the assay the test system is CEM cells HIV-1 protection, formazan growth assay. The assay is described as follows: NCI AIDS Antiviral Assay. As to conditions: for IC50: measured here: growth of uninfected CEM cells. The method in brief: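 Protection of CEM cells against HIV-1 was scored from cell growth (soluble formazan) across five concentrations, with parallel uninfected cells. Lack of protection may reflect toxicity.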

“And” between values parts separate entries of the source, which are not always exact repeats. Equal entries are not always repeated. The source made the active and inactive calls.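 The calls were made as follows: active = compounds giving half or more protection of infected cells from virus-caused growth loss, again on retest; inactive = the rest.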

As to `NC(=O)Nc1ccc(C(=O)NCCCNC(=O)c2ccc(NC(N)=O)cc2)cc1`, the EC50 (as a rule, the concentration giving half of the maximal effect) was over 200 µM and the IC50 (as a rule, the concentration that inhibits the measured activity by half) is over 200 µM.

Consider `NCS(=O)(=O)O`, for which the EC50 was over 200 µM and the IC50 came to 18.6 µM.

As for `Nc1ncnc2c1ncn2C1C=CC(COS(N)(=O)=O)C1` (stereo not given), the EC50 was over 100 µM and the IC50 turned out to be 52.5 µM.

Take `CCN(CC)CCN1CCNc2c3cc(OC)ccc3nc3c([N+](=O)[O-])ccc1c23`: the EC50 is over 100 µM and the IC50 came to 1.58 µM.

Take `O=C(O)c1cc(NCc2cc(O)ccc2O)ccc1O`: the EC50 was over 25.1 µM and the IC50 came out at 5.13 µM.

Take `O=S1(=O)CC2(N3CCOCC3)CCCCC21` (stereo not given): the EC50 is over 1020 µM and the IC50 is over 1020 µM.

Consider `Clc1ccc(-c2cn3c(nc4ccccc43)c(-c3ccccc3)n2)cc1`, for which the EC50 is over 200 µM and the concentration for half-maximal inhibition (IC50) was 72.4 µM.

`C/C(=N\O)C(CN1CCCCC1)C(c1ccccc1)c1c(O)c2ccccc2oc1=O` (stereo not given): the EC50 was over 29.5 µM and the IC50 is over 29.5 µM.

Take `CCOP(=O)(OCC)/C(C#N)=C/c1ccc(F)cc1`: the EC50 is over 891 µM and the IC50 was over 891 µM.

`CCOC(=O)/N=c1/nc(N(C)C)ss1`: the outcome was inactive.

As to `O=c1c2cc3c(cc2c2cccc4ccn1c42)OCO3`, the result was inactive.

`c1cnc2c(c1)Sc1ncccc1S2`: the EC50 was over 115 µM and the IC50 is 51.3 µM.

With `CN(C)c1ccc(/C=C(\C#N)C(N)=C(C#N)C#N)cc1`, the EC50 was 132 µM and the IC50 is over 200 µM.

`Cc1nn(C(=O)c2ccc(Cl)cc2)c2c1C(/C=C/c1ccccc1)SC(N)=N2` (stereo not given): the EC50 is 60.3 µM and the IC50 turned out to be 158 µM.

For the compound `CCc1c(C)c(SC)n(C)c(=O)c1C#N`, the EC50 was over 200 µM and the IC50 came to 69.2 µM.

As to `COC(=O)n1c(=O)n(-c2ccccc2)c(=O)n1C(=O)OC`, the EC50 was 155 µM and the IC50 worked out at 195 µM.

Turning to `Cc1cccc(C)c1NC(=O)CCC(=O)NC(N)=S`, the EC50 was over 339 µM and the IC50 was over 339 µM.

In the case of `Cc1nc2c(cc1C(=O)N/N=C/c1ccc([N+](=O)[O-])cc1)c(=O)n(C)c(=O)n2C`, the EC50 is over 200 µM and the IC50 was over 200 µM.

As to `CC(C)N(O)C(=N)c1ccccc1`, the result was inactive.

As to `CC(=O)OCC(OC(C)=O)C(OC(C)=O)C(OC(C)=O)C(=O)CNn1c(-c2ccccc2Cl)nc2ccc(Br)cc2c1=O` (stereo not given), the result was inactive.

`Cc1c(C(=O)NCCO)[n+](=O)c2ccccc2n1[O-]`: the EC50 is over 135 µM and the IC50 was over 135 µM.

Consider `COc1c(O)c2c3c(cc(C)cc3c1C(C)C)OC2`, for which the EC50 is over 28.2 µM and the IC50 is over 28.2 µM.

As to `CCOC(=O)c1nc2cc(C(F)(F)F)ccc2nc1Nc1ccc(F)cc1`, the EC50 is over 200 µM and the half-inhibitory concentration (IC50) worked out at 12.3 µM.

Turning to `CCc1nnc2n1N=C(c1ccc(-c3ccccc3)cc1)CS2`, the EC50 is over 200 µM and the IC50 turned out to be 11.5 µM.

Consider `Cc1c(C(=O)c2ccccc2C(=O)O)c2ccccc2n1C`, for which the result was inactive.

`O=C(O)c1c(CC(Cc2ccccc2)C(=O)O)ccc2c1CCC2` (stereo not given): the EC50 was over 200 µM and the IC50 was over 200 µM.

On to `CCOC(=O)Oc1cc2c(c(OC)c1OC)-c1ccc(OC)c(=O)cc1C(NC(C)=O)CC2` (stereo not given), for which the EC50 was over 2 µM and the IC50 was found to be 0.00525 µM.

For `COc1ccc2c(c1)C(O)C(CO)C(C(=O)O)C2` (stereo not given), the EC50 is over 200 µM and the IC50 was over 200 µM.

In the case of `O=c1[nH]c(NCc2cccnc2)nc2nc[nH]c12`, the EC50 is over 200 µM and the IC50 was over 200 µM.

As to `O=c1c(O)c(O)c(=O)c(=O)c1=O`, the outcome was inactive.

Turning to `CC1CC2C3CC(F)C4=CC(=O)C=CC4(C)C3(F)C(O)CC2(C)C1(O)C(=O)COC(=O)C(C)(C)C` (stereo not given), the result was inactive.

Turning to `COc1cc2c(cc1OC)C(Cc1cc(OCc3ccccc3)c(OC)cc1N)N(C)CC2` (stereo not given), the outcome was inactive.

In the case of `CCOC(=O)C[C@]1(O)[C@@H](CO[Si](C)(C)C(C)(C)C)O[C@@H](n2ccc(=O)[nH]c2=O)[C@@H]1O[Si](C)(C)C(C)(C)C`, the EC50 was over 200 µM and the IC50 stood at 10.7 µM.

For the compound `CC(C)(C)c1cc(O)c2c(c1O)C(=O)CCC2`, the result was inactive.

Take `CC1=C(C(=O)O)CCC2(C)C3=C(CCC12)C(=O)C(C(C)C)=CC3=O` (stereo not given): the EC50 is over 200 µM and the IC50 worked out at 12.3 µM.

On to `COC(=O)C1C(=O)N(C)c2cc(C)c(C)cc2C1(C)C` (stereo not given), for which the EC50 is over 200 µM and the IC50 is over 200 µM.

As for `Cc1ccc2nc(-c3ccc(N=NNc4ccc(-c5nc6ccc(C)c(S(=O)(=O)O)c6s5)cc4)cc3)sc2c1S(=O)(=O)O`, the EC50 is 174 µM and the IC50 is over 200 µM.

In the case of `Cc1c2oc3c(C)ccc(C(=O)NC4C(=O)NC(C(C)C)C(=O)N5CCCC[C@H]5C(=O)N(C)CC(=O)N(C)[C@@H](C(C)C)C(=O)OC4C)c3nc-2c(C(=O)NC2C(=O)N[C@H](C(C)C)C(=O)N3CCCC[C@H]3C(=O)N(C)CC(=O)N(C)C(C(C)C)C(=O)OC2C)c(N)c1=O` (stereo not given in full), the EC50 is over 2 µM and the IC50 was 0.00331 µM.

Take `N#Cc1cc2c(n(NS(=O)(=O)c3ccccc3)c1=O)CCC2`: the EC50 is over 200 µM and the IC50 is over 200 µM.

On to `Cc1cc(N=O)ccc1O`, for which the EC50 was over 200 µM and the IC50 was determined as 3.63 µM.

Regarding `CC(=O)c1c(N=[N+]=[N-])c2cccc3c2n(c1=O)CCC3`, the EC50 was over 200 µM and the 50% inhibitory concentration (IC50) came out at 30.9 µM.

With `CN(C)CCOc1cccc2c1C(=O)c1ccccc1C2=O`, the outcome was inactive.

Regarding `O=C(O)CN(CCN(CC(=O)O)CC(=O)O)CC(=O)O.[Ni+2]`, the EC50 was over 200 µM and the IC50 is over 200 µM.

With `CN(C)C(=S)SSC(=S)N(C)C`, the EC50 was over 200 µM; the outcome was inactive; the IC50 was 5.01 µM and 1.07 µM.

On to `Cc1ccc(NC(=O)NC(=O)CCl)cc1`, for which the EC50 was over 31.6 µM and the IC50 worked out at 7.76 µM.

On to `C#CCOCn1cnc2c(=S)nc[nH]c21`, for which the EC50 is over 9.12 µM and the IC50 is over 9.12 µM.

As for `CCOC(=O)c1nc(SC)sc1NC(=O)c1ccccc1Cl`, the EC50 is over 200 µM and the IC50 turned out to be 9.55 µM.

As to `Nc1c2nc(Nc3ccccc3)sc2nc(=S)n1-c1ccc([N+](=O)[O-])cc1`, the EC50 is over 50.1 µM and the IC50 is over 50.1 µM.

On to `Nc1cccc2c1C1=NNC(=O)CC1C2` (stereo not given), for which the result was inactive.

Take `Cc1nc(C(N)=S)sc1C(=O)/C=C/c1c(O)ccc2ccccc12`: the EC50 was over 53.7 µM and the IC50 came to 42.7 µM.

Regarding `COc1cc(/C=C/C(C)=O)ccc1OP(=O)(O)O`, the EC50 is over 200 µM and the IC50 is over 200 µM.

Consider `O=C1NC2OCC(O)C(O)C2O1` (stereo not given), for which the EC50 was over 200 µM and the IC50 is over 200 µM.

Turning to `CN(C)CCC(CCN(C)C)=NOC(=O)c1ccccc1`, the EC50 is over 692 µM and the IC50 was over 692 µM.

`COC(=O)[C@@H]1CN(C(C)=O)C(=O)N1C(=O)OCc1ccccc1`: the EC50 is over 200 µM and the IC50 was over 200 µM.

Regarding `CCN(CC)CC1CN=C(N)O1` (stereo not given), the EC50 was over 200 µM and the IC50 is over 200 µM.

Consider `CC1N(N2C(=O)CS(=O)(=O)C2C)C(=O)CS1(=O)=O` (stereo not given), for which the EC50 is over 200 µM and the IC50 is over 200 µM.

With `Cc1ccc2ccc3c(-c4ccccc4)cc(C)nc3c2n1`, the EC50 is over 20 µM and the IC50 was determined as 3.31 µM.

Regarding `CC1(C)C(c2ccccc2)=[N+]([O-])C(C)(C)N1O`, the EC50 is over 200 µM and the IC50 worked out at 170 µM.

As to `O=C(O)CCN1c2ccccc2Sc2ccccc21`, the EC50 is over 479 µM and the IC50 amounted to 170 µM.

Take `CCOC(=O)NC(=O)c1cn(CCN2CCN(C(=O)CCCCCCCCCCNc3ncnc4nc[nH]c34)CC2)c(=O)[nH]c1=O`: the outcome was inactive.

`O=NNc1nc(-c2ccccn2)nc2ccccc12`: the EC50 was over 200 µM and the IC50 came to 7.94 µM.

For `C[C@]12CC[C@H]3[C@@H](CC=C4C[C@@H](O)CC[C@@]43C)[C@@H]1CC[C@@H]2c1cnc[nH]1`, the EC50 is over 200 µM and the IC50 came out at 117 µM.

As to `C/C=C1/[C@@H]2C[C@H]3C4=Nc5ccccc5C4(C4[C@@H](O)ON3[C@@H]14)[C@@H]2C(=O)OC`, the EC50 is over 200 µM and the IC50 was over 200 µM.

As to `CCC(C(=O)c1ccc(OC)c(OC)c1)N(C(=O)C(F)(F)F)C(C)c1ccccc1` (stereo not given), the EC50 was over 200 µM and the IC50 was over 200 µM.

On to `O=C1C2C3C=C4c5ccccc5N(c5ccccc5)C4(C2C(=O)N1c1ccccc1)C1C(=O)N(c2ccccc2)C(=O)C31` (stereo not given), for which the result was inactive.

Turning to `O=C(NNc1nc2ccc(Cl)cc2s1)c1cnc2n(c1=O)CCS2`, the EC50 was over 200 µM and the 50% inhibitory concentration (IC50) was 102 µM.

On to `Cc1ccc(S(=O)(=O)N/N=c2\c(C)c(C3=NS(=O)(=O)c4cc(S(N)(=O)=O)c(Cl)cc4N3)oc3c(Cl)cc(Cl)cc23)cc1`, for which the EC50 is over 69.2 µM and the IC50 was over 69.2 µM.

Take `O=c1c(NCc2ccccc2)c(C2(c3ccccc3F)SCCCS2)c1=O`: the EC50 was over 200 µM and the half-inhibitory concentration (IC50) is 151 µM.

Consider `COc1c(C)c(C/C=C(\C)CC/C=C(\C)CC/C=C(\C)CCC=C(C)C)c(OC)c2ccccc12`, for which the EC50 was over 200 µM and the 50% inhibitory concentration (IC50) stood at 107 µM.

Consider `Nc1nnn(N)n1`, for which the EC50 is over 200 µM and the IC50 was over 200 µM.

Consider `CC(=O)C(N=Nc1nccs1)C(C)=O`, for which the EC50 was over 200 µM and the IC50 came out at 55 µM.

For the compound `Cc1cc2nnn(C3CCCCO3)c2cc1C` (stereo not given), the EC50 was over 200 µM and the half-maximal inhibitory concentration (IC50) turned out to be 174 µM.

For `COC1[C@@H](OC(C)=O)[C@@H](NC(=O)C(Cl)(Cl)Cl)C(I)[C@@H](N2C(=O)c3ccccc3C2=O)[C@H]1OC` (stereo not given in full), the EC50 is over 200 µM.

In the case of `O=[N+]([O-])c1cc(C2ON=C(c3ccccc3)N2C23CC4CC(CC(C4)C2)C3)ccc1Cl` (stereo not given), the EC50 is over 200 µM and the IC50 turned out to be 81.3 µM.

For the origin of these results see PubChem BioAssay AID179 (DTP/NCI, 2004).
